According to patent US9422265B2, “Process for the preparation of 3-(3-chloro-1H-pyrazol-1-yl)pyridine” (Dow AgroSciences LLC, priority 2014, dated 2016):

How the values were obtained:
[1] = test system: Green Peach Aphid (Myzus persicae) (MYZUPE); experiment: Bioassay on Green Peach Aphid (GPA), cabbage seedling foliar spray; assay type: in vivo; conditions: 72 h, 200 ppm spray on cabbage seedlings, graded after three days, live aphids, Abbott's correction, read-out: MYZUPE rating (% Control of Mortality)
Description: Example A Bioassays on Green Peach Aphid (“GPA”) (Myzus persicae) (MYZUPE.)
Several molecules disclosed herein were tested against GPA using procedures described below.
Cabbage seedling grown in 3-in pots, with 2-3 small (3-5 cm) true leaves, were used as test substrate. The seedlings were infested with […] (wingless adult and nymph stages) one day prior to chemical application. Four posts with individual seedlings were used for each treatment. Test compounds (2 mg) were dissolved in 2 mL of acetone/methanol (1:1) solvent, forming stock solutions of 1000 ppm test compound. The stock solutions were diluted 5× with 0.025% Tween 20 in water to obtain the solution at 200 ppm test compound. A hand-held aspirator-type sprayer was used for spraying a solution to both sides of the cabbage leaves until runoff. Reference plants (solvent check) were sprayed with the diluent only containing 20% by volume acetone/methanol (1:1) solvent. Treated plants were held in a holding room for three days at approximately 25° C. and ambient relative humidity (RH) prior to grading. Evaluation was conducted by counting the number of live aphids per plant under a microscope. Percent Control was measured by using Abbott's correction formula (W. S. Abbott, “A Method of Computing the Effectiveness of an Insecticide” J. Econ. Entomol 18 (1925), pp. 265-267) as follows. […]

[2] = test system: Sweetpotato Whitefly Crawler (Bemisia tabaci) (BEMITA); experiment: Bioassay on Sweetpotato Whitefly Crawler, cotton plant foliar spray; assay type: in vivo; conditions: 200 ppm spray on cotton plants, graded after 8-9 days, live nymphs, Abbott's correction, read-out: BEMITA rating (% Control of Mortality)
Text: Example B Bioassays on Sweetpotato Whitefly Crawler (Bemisia tabaci) (BEMITA.)
Cotton plants grown in 3-inch pots, with 1 small (3-5 cm) true leaf, were used at test substrate. The plants were placed in a room with whitefly adults. Adults were allowed to deposit eggs for 2-3 days. After a 2-3 day egg-laying period, plants were taken from the adult whitefly room. Adults were blown off leaves using a hand-held Devilbliss sprayer (23 psi). Plants with egg infestation (100-300 eggs per plant) were placed in a holding room for 5-6 days at 82° F. and 50% RH for egg hatch and crawler stage to develop. Four cotton plants were used for each treatment. Compounds (2 mg) were dissolved in 1 mL of acetone solvent, forming stock solutions of 2000 ppm. The stock solutions were diluted 10× with 0.025% Tween 20 in water to obtain a test solution at 200 ppm. A hand-held Devilbliss sprayer was used for spraying a solution to both sides of cotton leaf until runoff. Reference plants (solvent check) were sprayed with the diluent only. Treated plants were held in a holding room for 8-9 days at approximately 82° F. and 50% RH prior to grading. Evaluation was conducted by counting the number of live nymphs per plant under a microscope.

| SMILES | mortality at 200 ppm [1] | mortality at 200 ppm [2] |
| --- | --- | --- |
| CCN(C(=O)CC[S+]([O-])CCC(F)(F)F)c1cn(-c2cccnc2)nc1Cl (stereo not shown) [Compound 2-12, N-(3-chloro-1-(pyridin-3-yl)-1H-pyrazol-4-yl)-N-ethyl-3-((3,3,3-trifluoropropyl)sulfoxo)propanamide] | 80 to 100% | 80 to 100% |
| CCN(C(=O)CCSCCC(F)(F)F)c1cn(-c2cccnc2)nc1Cl [Compound 2-11, N-(3-chloro-1-(pyridin-3-yl)-1H-pyrazol-4-yl)-N-ethyl-3-((3,3,3-trifluoropropyl)thio)propanamide] | 80 to 100% | 80 to 100% |
